Measured values: patent US12486253B2, “Therapeutics for the degradation of mutant BRAF” (C4 THERAPEUTICS, INC., priority 2021, dated 2025)
Read-outs that look alike come from different tables or passages of the source.

Molecular target: BRAF V600E (Homo sapiens, UniProt P15056, V600E)
Experiment: HiBiT cellular BRAF^V600E degradation assay
Assay type: cell-based
Conditions: for DC50: concentration at which 50% of total cellular BRAF^V600E is degraded; for Emax: read-out: HiBit 24 h Emax
[1] = A375.10 cells, 24 h, residual protein remaining in the cell

BRAF V600E, sequence (P15056 whole entry V600E): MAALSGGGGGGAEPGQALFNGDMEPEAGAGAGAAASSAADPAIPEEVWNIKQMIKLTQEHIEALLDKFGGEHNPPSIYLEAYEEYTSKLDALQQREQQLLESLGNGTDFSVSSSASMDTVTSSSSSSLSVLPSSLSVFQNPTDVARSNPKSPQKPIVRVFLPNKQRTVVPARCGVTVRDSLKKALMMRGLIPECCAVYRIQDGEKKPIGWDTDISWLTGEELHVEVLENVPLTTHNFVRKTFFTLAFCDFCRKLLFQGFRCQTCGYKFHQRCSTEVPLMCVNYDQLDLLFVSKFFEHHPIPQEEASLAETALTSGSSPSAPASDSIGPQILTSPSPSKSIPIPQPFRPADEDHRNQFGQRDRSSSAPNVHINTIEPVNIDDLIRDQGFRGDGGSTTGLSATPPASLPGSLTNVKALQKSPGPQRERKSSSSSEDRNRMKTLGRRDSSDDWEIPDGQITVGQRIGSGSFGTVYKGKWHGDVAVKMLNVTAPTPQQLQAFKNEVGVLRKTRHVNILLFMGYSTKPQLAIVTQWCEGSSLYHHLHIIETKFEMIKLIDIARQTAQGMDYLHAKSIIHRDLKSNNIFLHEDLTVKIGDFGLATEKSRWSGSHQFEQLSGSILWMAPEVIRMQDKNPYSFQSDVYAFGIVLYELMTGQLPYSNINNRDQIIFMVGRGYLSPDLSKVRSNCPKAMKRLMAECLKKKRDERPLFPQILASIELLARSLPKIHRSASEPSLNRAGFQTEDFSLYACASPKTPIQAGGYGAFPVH

SMILES | DC50 (A375.10 cells, 24 h) | Emax [1] | Emax
CCN(C)S(=O)(=O)Nc1ccc(F)c(Oc2ccc3ncn([C@@H]4CCC5(CCN(C(=O)CN6CCC(c7ccc(N[C@H]8CCC(=O)NC8=O)cc7F)CC6)CC5)C4)c(=O)c3c2)c1C#N [Example 45, 6-[2-cyano-3-[[ethyl(methyl)sulfamoyl]amino]-6-fluorophenoxy]-3-[(3R)-8-[2-[4-[4-[[(3S)-2,6-dioxopiperidin-3-yl]amino]-2-fluorophenyl]piperidin-1-yl]acetyl]-8-azaspiro[4.5]decan-3-yl]-4-oxoquinazoline] | 18.7 nM | 11.3% | 
CCN(C)S(=O)(=O)Nc1ccc(F)c(Oc2ccc3ncn([C@H]4COC5(CCN(C(=O)CN6CCC(c7ccc(C8CCC(=O)NC8=O)cc7F)CC6)CC5)C4)c(=O)c3c2)c1C#N (stereo partly drawn) [Example 46, (3R)-3-[6-[2-cyano-3-[[ethyl(methyl)sulfamoyl]amino]-6-fluorophenoxy]-4-oxoquinazolin-3-yl]-8-[2-[4-[4-(2,6-dioxopiperidin-3-yl)-2-fluorophenyl]piperidin-1-yl]acetyl]-1-oxa-8-azaspiro[4.5]decane] | 29.9 nM | 13.4% | 
CCN(C)S(=O)(=O)Nc1ccc(F)c(Oc2ccc3ncn([C@H]4COC5(CCN(C(=O)CC6CCN(c7ccc(NC8CCC(=O)NC8=O)cc7F)CC6)CC5)C4)c(=O)c3c2)c1C#N (stereo partly drawn) [Example 47, (3R)-3-[6-[2-cyano-3-[[ethyl(methyl)sulfamoyl]amino]-6-fluorophenoxy]-4-oxoquinazolin-3-yl]-8-[2-[1-[4-[(2,6-dioxopiperidin-3-yl)amino]-2-fluorophenyl]piperidin-4-yl]acetyl]-1-oxa-8-azaspiro[4.5]decane] | 25.7 nM | 19.3% | 
CCN(C)S(=O)(=O)Nc1ccc(F)c(Oc2ccc3ncn([C@H]4CCC5(CCN(C(=O)CN6CCN(c7ccc(NC8CCC(=O)NC8=O)cc7F)CC6)CC5)C4)c(=O)c3c2)c1C#N (stereo partly drawn) [Example 48, 6-[2-cyano-3-[[ethyl(methyl)sulfamoyl]amino]-6-fluorophenoxy]-3-[(3S)-8-[2-[4-[4-[(2,6-dioxopiperidin-3-yl)amino]-2-fluorophenyl]piperazin-1-yl]acetyl]-8-azaspiro[4.5]decan-3-yl]-4-oxoquinazoline] | 34.5 nM | 15.6% | 
N#Cc1c(NS(=O)(=O)N2CC[C@@H](F)C2)ccc(F)c1Oc1ccc2ncn([C@H]3COC4(CCN(C(=O)CN5CCC(c6ccc(NC7CCC(=O)NC7=O)cc6F)CC5)CC4)C3)c(=O)c2c1 (stereo partly drawn) [Example 49, (3R)—N-[2-cyano-3-[3-[(3R)-8-[2-[4-[4-[(2,6-dioxopiperidin-3-yl)amino]-2-fluorophenyl]piperidin-1-yl]acetyl]-1-oxa-8-azaspiro[4.5]decan-3-yl]-4-oxoquinazolin-6-yl]oxy-4-fluorophenyl]-3-fluoropyrrolidine-1-sulfonamide] | 148 nM | 10.8% | 
CCN(C)S(=O)(=O)Nc1ccc(F)c(Oc2ccc3ncn([C@H]4COC5(CCN(C(=O)CN6CCN(c7ccc(NC8CCC(=O)NC8=O)cc7F)CC6)CC5)C4)c(=O)c3c2)c1C#N (stereo partly drawn) [Example 50, (3R)-3-[6-[2-cyano-3-[[ethyl(methyl)sulfamoyl]amino]-6-fluorophenoxy]-4-oxoquinazolin-3-yl]-8-[2-[4-[4-[(2,6-dioxopiperidin-3-yl)amino]-2-fluorophenyl]piperazin-1-yl]acetyl]-1-oxa-8-azaspiro[4.5]decane] | 128 nM | 13.4% | 
CCN(C)S(=O)(=O)Nc1ccc(F)c(Oc2ccc3ncn(C4COC5(CCN(C(=O)CN6CCC(c7ccc(NC8CCC(=O)NC8=O)cc7F)CC6)CC5)C4)c(=O)c3c2F)c1C#N (centres unmarked) [Example 51, 3-[6-[2-cyano-3-[[ethyl(methyl)sulfamoyl]amino]-6-fluorophenoxy]-5-fluoro-4-oxoquinazolin-3-yl]-8-[2-[4-[4-[(2,6-dioxopiperidin-3-yl)amino]-2-fluorophenyl]piperidin-1-yl]acetyl]-1-oxa-8-azaspiro[4.5]decane] | 29.6 nM | 10.9% | 
CCN(C)S(=O)(=O)Nc1ccc(F)c(Oc2ccc3ncn(C4CCC5(CCN(C(=O)CN6CCC(c7ccc(NC8CCC(=O)NC8=O)cc7F)CC6)CC5)C4)c(=O)c3c2F)c1C#N (centres unmarked) [Example 52, 6-[2-cyano-3-[[ethyl(methyl)sulfamoyl]amino]-6-fluorophenoxy]-3-[8-[2-[4-[4-[(2,6-dioxopiperidin-3-yl)amino]-2-fluorophenyl]piperidin-1-yl]acetyl]-8-azaspiro[4.5]decan-3-yl]-5-fluoro-4-oxoquinazoline] | 20.7 nM | 11.4% | 
CCN(C)S(=O)(=O)Nc1ccc(F)c(Oc2ccc3ncn([C@H]4COC5(CCN(C(=O)CN6CCC(c7ccc(NC8CCC(=O)NC8=O)c(F)c7)CC6)CC5)C4)c(=O)c3c2)c1C#N (stereo partly drawn) [Example 54, (3R)-3-[6-[2-cyano-3-[[ethyl(methyl)sulfamoyl]amino]-6-fluorophenoxy]-4-oxoquinazolin-3-yl]-8-[2-[4-[4-[(2,6-dioxopiperidin-3-yl)amino]-3-fluorophenyl]piperidin-1-yl]acetyl]-1-oxa-8-azaspiro[4.5]decane] | 15.4 nM |  | 12.1%
CCN(C)S(=O)(=O)Nc1ccc(F)c(Oc2ccc3ncn([C@H]4CCC5(CCN(C(=O)CN6CCN(c7ccc(C8CCC(=O)NC8=O)cc7F)CC6)CC5)C4)c(=O)c3c2)c1C#N (stereo partly drawn) [Example 55, 6-[2-cyano-3-[[ethyl(methyl)sulfamoyl]amino]-6-fluorophenoxy]-3-[(3S)-8-[2-[4-[4-(2,6-dioxopiperidin-3-yl)-2-fluorophenyl]piperazin-1-yl]acetyl]-8-azaspiro[4.5]decan-3-yl]-4-oxoquinazoline] | 30 nM | 14.7% | 
N#Cc1c(NS(=O)(=O)C2CCCC2)ccc(F)c1Oc1ccc2ncn([C@H]3COC4(CCN(C(=O)CN5CCC(c6ccc(NC7CCC(=O)NC7=O)cc6F)CC5)CC4)C3)c(=O)c2c1 (stereo partly drawn) [Example 56, N-[2-cyano-3-[3-[(3R)-8-[2-[4-[4-[(2,6-dioxopiperidin-3-yl)amino]-2-fluorophenyl]piperidin-1-yl]acetyl]-1-oxa-8-azaspiro[4.5]decan-3-yl]-4-oxoquinazolin-6-yl]oxy-4-fluorophenyl]cyclopentanesulfonamide] | 31.6 nM | 11.6% | 
CCN(C)S(=O)(=O)Nc1ccc(F)c(Oc2ccc3ncn(C4CCC5(CCN(C(=O)CN6CCC(c7ccc(NC8CCC(=O)NC8=O)cc7F)CC6)CC5)C4)c(=O)c3c2C)c1C#N (centres unmarked) [Example 57, 6-[2-cyano-3-[[ethyl(methyl)sulfamoyl]amino]-6-fluorophenoxy]-3-[8-[2-[4-[4-[(2,6-dioxopiperidin-3-yl)amino]-2-fluorophenyl]piperidin-1-yl]acetyl]-8-azaspiro[4.5]decan-3-yl]-5-methyl-4-oxoquinazoline] | 20.9 nM | 11.5% | 
CCN(C)S(=O)(=O)Nc1ccc(F)c(Oc2ccc3ncn([C@H]4COC5(CCN(C(=O)CN6CCC(c7ccc(NC8CCC(=O)NC8=O)cc7F)C(F)(F)C6)CC5)C4)c(=O)c3c2)c1C#N (stereo partly drawn) [Example 58, (3R)-3-[6-[2-cyano-3-[[ethyl(methyl)sulfamoyl]amino]-6-fluorophenoxy]-4-oxoquinazolin-3-yl]-8-[2-[4-[4-[(2,6-dioxopiperidin-3-yl)amino]-2-fluorophenyl]-3,3-difluoropiperidin-1-yl]acetyl]-1-oxa-8-azaspiro[4.5]decane] | 45.3 nM | 13.9% | 
